Test results as given in ChEMBL document CHEMBL1201862, “PubChem BioAssay data set” (2004).
Structures can show the parent of a compound that is named as a salt. Activity calls are given as the source filed them.

Experiments:
[1] = molecular target: Voltage-dependent T-type calcium channel subunit alpha-1H (Homo sapiens, UniProt O95180); assay: human CACNA1H calcium influx blockade – cell-based, synthetic library set 2, HEK293 HH8, Fluo-4, SAR follow-up (AID 493023); format: functional
[2] = molecular target: T1, Dual specificity protein phosphatase 6 (Rattus norvegicus, UniProt Q64346); assay: inhibition of rat DUSP6 enzyme activity – biochemical, in vitro, primary screen (AID 425)
T1 sequence (Q64346 whole entry): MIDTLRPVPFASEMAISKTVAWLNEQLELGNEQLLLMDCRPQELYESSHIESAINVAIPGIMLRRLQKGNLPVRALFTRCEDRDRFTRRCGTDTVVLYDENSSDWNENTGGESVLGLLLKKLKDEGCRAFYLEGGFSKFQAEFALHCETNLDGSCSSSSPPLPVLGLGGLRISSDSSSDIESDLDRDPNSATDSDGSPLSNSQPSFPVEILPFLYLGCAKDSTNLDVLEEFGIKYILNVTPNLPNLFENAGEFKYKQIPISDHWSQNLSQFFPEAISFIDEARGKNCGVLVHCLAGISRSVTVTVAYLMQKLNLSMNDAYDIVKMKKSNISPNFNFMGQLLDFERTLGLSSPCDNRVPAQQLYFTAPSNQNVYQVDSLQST

[3] = molecular target: T2, Dual specificity protein phosphatase 3 (Homo sapiens, UniProt P51452); assay: VHR1 phosphatase inhibitors, primary screen, biochemical, absorbance, uHTS (AID 1654)
[4] = molecular target: T3, Polyadenylate-binding protein 1 (Homo sapiens, UniProt P11940); assay: MLLE domain peptide-binding blockers, IC50 – biochemical, fluorescence polarization, FITC-PAM2 peptide, dose response (AID 602259); format: functional; settings: read-out: IC50_Mean
[5] = molecular target: T2, Dual specificity protein phosphatase 3; assay: VHR1 phosphatase inhibitors, biochemical (AID 1878)
[6] = molecular target: T3, Polyadenylate-binding protein 1; assay: MLLE binding blockers, Cy5 peptide tracer – biochemical, fluorescence polarization, Cy5-PAM2 peptide, secondary, miRNA deadenylation inhibitor project, dose response (AID 602260); format: functional; settings: read-out: IC50_Mean
[7] = molecular target: Eukaryotic translation initiation factor 4H (Homo sapiens, UniProt Q15056); assay: inhibitors of translation initiation factor eIF4H – SAR follow-up (AID 435011); format: functional
[8] = molecular target: T3, Polyadenylate-binding protein 1; assay: PABP inhibition in translation initiation, SAR follow-up (AID 435018); format: functional
[9] = molecular target: Cytochrome P450 2C9 (Homo sapiens, UniProt P11712)
[10] = molecular target: Cytochrome P450 2D6 (Homo sapiens, UniProt P10635);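 further: CYP2D6 member of a cytochrome P450 panel assay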
[11] = molecular target: Lysine-specific demethylase 4C (Homo sapiens, UniProt Q9H3R0); assay: inhibition of JMJD2C H3K9me3 demethylation – biochemical, DELFIA europium, cherry-picked samples, dose response (AID 488835); format: functional
[12] = molecular target: T4, X-box-binding protein 1 (Homo sapiens, UniProt P17861); format: functional, Cricetulus griseus;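 further: confirmatory dose-response counter-screen serving a CHOP assay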
T4 sequence (P17861 whole entry): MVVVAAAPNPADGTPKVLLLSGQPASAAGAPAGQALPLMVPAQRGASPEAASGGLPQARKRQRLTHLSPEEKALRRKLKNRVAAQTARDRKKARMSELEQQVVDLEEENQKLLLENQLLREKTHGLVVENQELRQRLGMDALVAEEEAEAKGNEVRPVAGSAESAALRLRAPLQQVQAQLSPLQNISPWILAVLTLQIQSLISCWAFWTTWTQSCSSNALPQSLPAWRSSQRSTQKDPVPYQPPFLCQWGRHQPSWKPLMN

[13] = molecular target: DNA damage-inducible transcript 3 protein (Mus musculus, UniProt P35639); format: functional, Cricetulus griseus
[14] = molecular target: T5, Ubiquitin-conjugating enzyme E2 N (Homo sapiens, UniProt P61088); format: functional
T5 sequence (P61088 whole entry): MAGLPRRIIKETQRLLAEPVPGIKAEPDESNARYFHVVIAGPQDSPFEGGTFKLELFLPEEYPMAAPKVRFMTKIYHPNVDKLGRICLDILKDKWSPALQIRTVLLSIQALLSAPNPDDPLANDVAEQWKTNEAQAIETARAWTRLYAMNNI

[15] = molecular target: T6, Bcl-2-related protein A1 (Mus musculus, UniProt Q07440); format: functional;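 further: confirmatory dose–response counterscreen on Bfl-1, used to check hits from a UBC13 polyubiquitin inhibitor campaign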
T6 sequence (Q07440 whole entry): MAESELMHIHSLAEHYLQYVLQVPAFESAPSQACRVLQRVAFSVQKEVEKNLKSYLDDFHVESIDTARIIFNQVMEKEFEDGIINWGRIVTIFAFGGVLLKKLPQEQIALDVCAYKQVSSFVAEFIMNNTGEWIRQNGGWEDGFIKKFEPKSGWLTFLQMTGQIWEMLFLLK

[16] = molecular target: T5, Ubiquitin-conjugating enzyme E2 N; format: functional; remark: listed apart in the source
[17] = molecular target: Intestinal-type alkaline phosphatase (Mus musculus, UniProt P24822); assay: PubChem AID 488875; format: functional
[18] = molecular target: T7, Alkaline phosphatase, tissue-nonspecific isozyme (Homo sapiens, UniProt P05186); assay: activation of tissue-nonspecific alkaline phosphatase – biochemical, TNAP isozyme, human IAP uHTS hits, selectivity assay for human IAP activator project, dose response (AID 488886); format: functional;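 further: potency of compounds raising TNAP activity as a selectivity check on IAP activators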
T7 sequence (P05186 whole entry): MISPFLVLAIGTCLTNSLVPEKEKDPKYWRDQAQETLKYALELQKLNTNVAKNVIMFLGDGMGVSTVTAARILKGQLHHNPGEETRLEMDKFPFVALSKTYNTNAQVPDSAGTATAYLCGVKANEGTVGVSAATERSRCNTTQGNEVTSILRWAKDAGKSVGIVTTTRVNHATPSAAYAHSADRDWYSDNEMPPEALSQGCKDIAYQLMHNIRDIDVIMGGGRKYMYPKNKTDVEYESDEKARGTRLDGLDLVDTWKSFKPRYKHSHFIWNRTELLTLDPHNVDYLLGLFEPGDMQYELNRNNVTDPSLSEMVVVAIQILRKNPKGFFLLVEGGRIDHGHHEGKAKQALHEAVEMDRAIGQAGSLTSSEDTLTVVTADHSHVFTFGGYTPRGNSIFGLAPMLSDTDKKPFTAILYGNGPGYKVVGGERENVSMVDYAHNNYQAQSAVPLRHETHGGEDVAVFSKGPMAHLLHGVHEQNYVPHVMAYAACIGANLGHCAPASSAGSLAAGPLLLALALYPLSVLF

[19] = molecular target: T8, Intestinal-type alkaline phosphatase (Homo sapiens, UniProt P09923); assay: human intestinal alkaline phosphatase activators, dose response, biochemical, luminescence, uHTS hits (AID 463120); format: functional
[20] = molecular target: T8, Intestinal-type alkaline phosphatase; assay: activation of human intestinal alkaline phosphatase – biochemical, luminescent, uHTS hits, set 2, dose response (AID 488817); format: functional;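 further: potency of activators that raise enzyme activity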
[21] = molecular target: T9, Voltage-gated N-type calcium channel alpha-1B subunit/Amyloid beta A4 precursor protein-binding family A member 1 (Homo sapiens, UniProt Q00975+Q02410); assay: disruptors of Mint-PDZ/N-type channel peptide interaction – biochemical, HTRF, SAR follow-up (AID 2489); format: functional
[22] = molecular target: SUMO E1/E2 (Homo sapiens, UniProt P63279+Q9UBE0+Q9UBT2); assay: SAR analysis of SUMOylation using HTRF in an in-Vitro dose response assay. [Related pubchem assays (depositor defined):AID2006, AID2011, AID2018, AID2069, AID2658]; format: functional
[23] = molecular target: T9, Voltage-gated N-type calcium channel alpha-1B subunit/Amyloid beta A4 precursor protein-binding family A member 1; assay: disruptors of Mint-PDZ/N-type channel peptide interaction – biochemical, HTRF, set 2, SAR follow-up (AID 434980); format: functional
[24] = molecular target: Sphingosine 1-phosphate receptor 1 (Homo sapiens, UniProt P21453); assay: Late stage counterscreen assay for S1P4 antagonists: Fluorescence dose response cell-based screening assay for antagonists of the Sphingosine 1-Phosphate Receptor 1 (S1P1). [Related pubchem assays (depositor defined):AID1510, AID1524, AID1692, AID1853, AID2332, AID489009, AID489017]; format: functional
[25] = molecular target: Sphingosine 1-phosphate receptor 3 (Homo sapiens, UniProt Q99500); assay: Late stage counterscreen assay for S1P4 antagonists: Fluorescence dose response cell-based screening assay for antagonists of the Sphingosine 1-Phosphate Receptor 3 (S1P3). [Related pubchem assays (depositor defined):AID1510, AID1524, AID1692, AID1853, AID2332, AID489009, AID489017]; format: functional
[26] = molecular target: Sphingosine 1-phosphate receptor 5 (Homo sapiens, UniProt Q9H228); assay: Late stage counterscreen assay for S1P4 antagonists: Fluorescence dose response cell-based screening assay for antagonists of the Sphingosine 1-Phosphate Receptor 5 (S1P5). [Related pubchem assays (depositor defined):AID1510, AID1524, AID1692, AID1853, AID2332, AID489009, AID489017]; format: functional
[27] = molecular target: Sphingosine 1-phosphate receptor 2 (Homo sapiens, UniProt O95136); assay: Late stage counterscreen assay for S1P4 antagonists: Fluorescence dose response cell-based screening assay for antagonists of the Sphingosine 1-Phosphate Receptor 2 (S1P2). [Related pubchem assays (depositor defined):AID1510, AID1524, AID1692, AID1853, AID2332, AID489009, AID489017]; format: functional
[28] = test system: HEK293; assay: cells; settings: Homo sapiens
[29] = test system: HEK293; assay: cells; settings: Homo sapiens; remark: listed apart in the source
[30] = molecular target: Paired box protein Pax-8 (Homo sapiens, UniProt Q06710); assay: PAX8 transcriptional activity inhibition in RMG-I – RMG-I cells, luciferase, cherry-pick, dose response (AID 687027); format: functional, cell-based;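 further: luciferase reporter driven by Pax8 target thyroperoxidase promoter measured by SteadyGlo luminescence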
[31] = test system: INS1; assay: INS-1E survival protection against cytokine death – cell-based, luminescence, retest, dose response (AID 449756); format: functional; settings: Rattus norvegicus;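 further: cell death triggered by IL-1 beta plus TNF-alpha plus IFN-gamma mixture; protective hits raise ATP signal compared with cytokine alone wells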
[32] = Luminescence Cell-Based Dose Retest to Confirm Inhibitors of Cancer Stem Cells. [Related pubchem assays (depositor defined):AID2717, AID2721]; format: functional; settings: Homo sapiens
[33] = molecular target: SUMO-activating enzyme (Homo sapiens, UniProt Q9UBT2); assay: blockers of UBC9-mediated SUMO conjugation – biochemical, AlphaScreen, SUMOylation inhibitor project, confirmation (AID 2018); format: functional

T3 sequence (P11940 whole entry, the tested form may be a part): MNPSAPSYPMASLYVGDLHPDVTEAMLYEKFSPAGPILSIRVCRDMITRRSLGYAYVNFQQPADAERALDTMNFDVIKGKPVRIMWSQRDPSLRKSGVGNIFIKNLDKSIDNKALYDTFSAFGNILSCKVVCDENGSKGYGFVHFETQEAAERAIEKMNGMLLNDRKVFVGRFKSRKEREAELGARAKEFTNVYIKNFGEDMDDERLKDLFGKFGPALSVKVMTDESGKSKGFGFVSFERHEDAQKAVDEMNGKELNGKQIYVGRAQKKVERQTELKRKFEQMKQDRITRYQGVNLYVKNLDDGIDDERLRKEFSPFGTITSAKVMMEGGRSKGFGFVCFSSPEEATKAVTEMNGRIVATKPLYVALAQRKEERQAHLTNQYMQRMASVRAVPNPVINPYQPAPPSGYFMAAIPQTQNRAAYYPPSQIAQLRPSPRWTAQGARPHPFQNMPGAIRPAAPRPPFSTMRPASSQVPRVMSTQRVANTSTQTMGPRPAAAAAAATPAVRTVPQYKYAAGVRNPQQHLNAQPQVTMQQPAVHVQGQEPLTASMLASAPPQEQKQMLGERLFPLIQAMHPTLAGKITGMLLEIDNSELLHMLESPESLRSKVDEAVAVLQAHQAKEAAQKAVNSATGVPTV
Sequence of Lysine-specific demethylase 4C (Q9H3R0 whole entry): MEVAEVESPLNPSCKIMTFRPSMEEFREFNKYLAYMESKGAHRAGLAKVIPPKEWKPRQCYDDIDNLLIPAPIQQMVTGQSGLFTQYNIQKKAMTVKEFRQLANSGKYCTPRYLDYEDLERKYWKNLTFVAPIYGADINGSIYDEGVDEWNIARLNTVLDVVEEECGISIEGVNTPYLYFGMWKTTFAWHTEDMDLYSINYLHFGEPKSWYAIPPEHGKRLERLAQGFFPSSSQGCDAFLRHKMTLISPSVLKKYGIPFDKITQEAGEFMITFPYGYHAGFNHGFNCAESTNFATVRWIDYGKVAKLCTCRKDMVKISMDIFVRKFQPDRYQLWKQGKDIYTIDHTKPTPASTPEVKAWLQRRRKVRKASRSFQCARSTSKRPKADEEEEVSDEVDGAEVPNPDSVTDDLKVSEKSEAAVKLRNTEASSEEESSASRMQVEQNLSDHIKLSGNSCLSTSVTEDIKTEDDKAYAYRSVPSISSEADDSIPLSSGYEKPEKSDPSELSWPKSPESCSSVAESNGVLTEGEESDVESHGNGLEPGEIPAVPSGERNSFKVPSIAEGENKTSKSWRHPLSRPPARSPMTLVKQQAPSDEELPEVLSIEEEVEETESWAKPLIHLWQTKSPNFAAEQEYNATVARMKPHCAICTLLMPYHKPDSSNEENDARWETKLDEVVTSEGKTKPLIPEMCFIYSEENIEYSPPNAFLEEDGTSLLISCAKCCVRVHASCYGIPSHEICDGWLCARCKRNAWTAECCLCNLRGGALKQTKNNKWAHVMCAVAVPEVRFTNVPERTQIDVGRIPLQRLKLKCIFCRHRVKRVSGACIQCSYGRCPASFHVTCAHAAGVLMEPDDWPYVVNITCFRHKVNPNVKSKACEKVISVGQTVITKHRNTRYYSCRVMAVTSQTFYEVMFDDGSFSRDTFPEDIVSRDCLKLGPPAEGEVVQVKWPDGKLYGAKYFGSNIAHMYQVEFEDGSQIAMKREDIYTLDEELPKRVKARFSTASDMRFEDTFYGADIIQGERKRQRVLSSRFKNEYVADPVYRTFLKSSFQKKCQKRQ
Sequence of Cytochrome P450 2D6 (P10635 whole entry): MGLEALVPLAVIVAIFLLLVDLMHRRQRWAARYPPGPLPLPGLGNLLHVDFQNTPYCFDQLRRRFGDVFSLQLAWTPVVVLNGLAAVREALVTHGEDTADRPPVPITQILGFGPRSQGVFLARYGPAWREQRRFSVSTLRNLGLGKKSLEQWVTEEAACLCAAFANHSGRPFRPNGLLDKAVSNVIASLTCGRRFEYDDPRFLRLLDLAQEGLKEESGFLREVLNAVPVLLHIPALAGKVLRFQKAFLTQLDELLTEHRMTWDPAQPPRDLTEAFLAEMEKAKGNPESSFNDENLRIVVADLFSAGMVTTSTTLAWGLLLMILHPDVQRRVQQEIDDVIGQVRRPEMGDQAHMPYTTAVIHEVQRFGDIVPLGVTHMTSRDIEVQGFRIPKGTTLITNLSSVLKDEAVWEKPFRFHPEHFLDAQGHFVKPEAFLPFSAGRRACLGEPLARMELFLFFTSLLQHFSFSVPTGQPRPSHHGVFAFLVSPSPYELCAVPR
Sequence of Voltage-dependent T-type calcium channel subunit alpha-1H (O95180 whole entry): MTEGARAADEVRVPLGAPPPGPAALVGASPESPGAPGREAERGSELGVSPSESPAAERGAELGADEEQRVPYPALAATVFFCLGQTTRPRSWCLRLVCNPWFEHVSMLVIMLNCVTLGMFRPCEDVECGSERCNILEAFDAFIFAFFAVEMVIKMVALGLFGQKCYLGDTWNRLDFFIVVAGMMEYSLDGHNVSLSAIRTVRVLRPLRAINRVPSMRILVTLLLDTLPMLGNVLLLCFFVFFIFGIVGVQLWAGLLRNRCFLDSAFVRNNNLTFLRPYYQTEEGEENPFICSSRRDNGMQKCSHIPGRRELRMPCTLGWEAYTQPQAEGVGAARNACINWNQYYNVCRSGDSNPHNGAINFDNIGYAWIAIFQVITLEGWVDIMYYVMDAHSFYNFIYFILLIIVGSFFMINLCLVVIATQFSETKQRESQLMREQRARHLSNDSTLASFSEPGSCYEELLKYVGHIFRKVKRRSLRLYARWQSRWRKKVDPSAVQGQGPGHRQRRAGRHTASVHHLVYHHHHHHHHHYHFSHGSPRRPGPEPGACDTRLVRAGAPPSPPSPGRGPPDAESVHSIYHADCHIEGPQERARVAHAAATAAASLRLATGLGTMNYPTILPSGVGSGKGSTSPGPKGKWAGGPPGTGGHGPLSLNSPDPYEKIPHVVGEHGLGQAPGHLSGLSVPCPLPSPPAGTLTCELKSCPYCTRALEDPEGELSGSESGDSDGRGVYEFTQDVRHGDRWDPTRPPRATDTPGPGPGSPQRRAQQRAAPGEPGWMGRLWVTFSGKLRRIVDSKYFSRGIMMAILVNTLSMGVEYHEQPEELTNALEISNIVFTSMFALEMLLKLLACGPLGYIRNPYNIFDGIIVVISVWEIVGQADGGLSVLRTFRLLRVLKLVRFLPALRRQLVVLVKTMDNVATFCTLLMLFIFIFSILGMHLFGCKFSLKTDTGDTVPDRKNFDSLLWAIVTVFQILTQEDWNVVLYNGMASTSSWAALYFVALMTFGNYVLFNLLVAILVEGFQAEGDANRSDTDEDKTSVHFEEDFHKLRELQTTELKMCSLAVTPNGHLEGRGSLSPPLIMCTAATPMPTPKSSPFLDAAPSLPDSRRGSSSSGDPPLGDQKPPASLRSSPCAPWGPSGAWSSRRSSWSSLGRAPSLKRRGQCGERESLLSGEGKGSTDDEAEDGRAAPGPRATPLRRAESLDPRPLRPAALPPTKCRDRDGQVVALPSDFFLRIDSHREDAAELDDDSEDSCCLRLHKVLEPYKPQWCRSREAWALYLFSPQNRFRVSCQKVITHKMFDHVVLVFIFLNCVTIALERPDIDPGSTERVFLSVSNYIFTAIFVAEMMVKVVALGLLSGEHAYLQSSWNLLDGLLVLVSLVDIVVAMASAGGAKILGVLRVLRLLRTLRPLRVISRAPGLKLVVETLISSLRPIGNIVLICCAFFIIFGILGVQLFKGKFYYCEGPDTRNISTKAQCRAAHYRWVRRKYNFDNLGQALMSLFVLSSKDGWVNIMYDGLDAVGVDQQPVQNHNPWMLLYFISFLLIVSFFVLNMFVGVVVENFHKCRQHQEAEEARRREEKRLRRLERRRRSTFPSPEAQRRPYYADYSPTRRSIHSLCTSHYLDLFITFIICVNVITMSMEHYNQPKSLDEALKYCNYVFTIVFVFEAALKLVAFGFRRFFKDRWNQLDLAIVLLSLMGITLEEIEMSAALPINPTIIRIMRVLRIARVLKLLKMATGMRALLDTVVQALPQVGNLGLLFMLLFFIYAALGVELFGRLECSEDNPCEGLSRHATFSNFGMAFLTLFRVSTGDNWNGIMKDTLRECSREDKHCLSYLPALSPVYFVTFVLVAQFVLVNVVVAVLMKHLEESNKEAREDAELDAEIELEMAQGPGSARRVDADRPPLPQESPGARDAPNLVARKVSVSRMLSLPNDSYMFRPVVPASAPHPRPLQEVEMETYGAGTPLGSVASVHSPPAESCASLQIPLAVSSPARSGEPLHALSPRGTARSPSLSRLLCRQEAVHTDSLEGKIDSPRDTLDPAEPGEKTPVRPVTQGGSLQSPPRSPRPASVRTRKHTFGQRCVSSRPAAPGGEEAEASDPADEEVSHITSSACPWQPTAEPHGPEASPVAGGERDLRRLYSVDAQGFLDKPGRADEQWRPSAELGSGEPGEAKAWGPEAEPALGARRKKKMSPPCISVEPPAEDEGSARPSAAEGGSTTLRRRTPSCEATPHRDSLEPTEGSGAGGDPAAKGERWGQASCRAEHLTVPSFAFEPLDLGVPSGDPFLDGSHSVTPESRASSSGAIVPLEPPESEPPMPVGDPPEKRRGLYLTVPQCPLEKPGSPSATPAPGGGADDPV
T8 sequence (P09923 whole entry): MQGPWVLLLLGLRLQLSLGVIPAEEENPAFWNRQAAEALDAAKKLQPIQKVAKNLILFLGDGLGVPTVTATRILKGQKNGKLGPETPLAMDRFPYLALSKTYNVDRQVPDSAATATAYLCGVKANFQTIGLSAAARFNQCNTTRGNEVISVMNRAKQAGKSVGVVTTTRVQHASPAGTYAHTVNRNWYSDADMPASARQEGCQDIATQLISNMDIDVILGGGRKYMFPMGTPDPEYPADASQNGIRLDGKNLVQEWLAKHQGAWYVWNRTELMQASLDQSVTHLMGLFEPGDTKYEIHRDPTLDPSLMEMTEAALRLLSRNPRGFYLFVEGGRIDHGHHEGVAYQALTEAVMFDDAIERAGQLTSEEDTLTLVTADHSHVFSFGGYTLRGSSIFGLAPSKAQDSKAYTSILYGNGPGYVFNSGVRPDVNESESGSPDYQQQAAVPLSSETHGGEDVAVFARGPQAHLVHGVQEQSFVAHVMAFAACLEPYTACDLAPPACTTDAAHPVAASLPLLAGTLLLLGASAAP

CC(C)(C)CCN1CCC[C@H](NC(=O)COc2ccc(F)c(Cl)c2)C1
EC50 [1]: 10 µM (active)

S=C(NCCCN1CCOCC1)NCCCN1CCOCC1
IC50 [2]: > 158 µM (not active) | IC50 [3]: 2.61 µM (active) | IC50 [4]: > 66 µM (inactive) | IC50 [5]: 6.17 µM (active) | IC50 [6]: > 66 µM (inactive)

CCOC(=O)Cc1c(Sc2ccccc2)c2ccccc2n1C
IC50 [7]: > 100 µM (inactive) | IC50 [8]: > 100 µM (inactive)

Cn1c(SCC(=O)N/N=C/C=C\c2ccco2)nc2ccccc21
AC50 [9]: inconclusive | AC50 [10]: inconclusive

CN1C(=O)C(Cc2ccc(OCc3ccccc3)cc2)C(=O)N(C)C1=O
AC50 [11]: 9.21 µM (active)

CCCCC1=CC2=C(c3ccco3)C(=O)C(C)(OC(=O)c3ccc(OC)cc3)C(=O)C2=CN1Cc1ccccc1 (stereo not given)
Absolute IC50 (XBP1) [12]: 10 µM | Absolute IC50 (CHOP) [13]: 10 µM

NCCCNCCCCNCCCN [SPERMINE TETRAHYDROCHLORIDE]
IC50 [14]: 14.3 µM (active) | IC50 [15]: > 20 µM (inactive) | IC50 [16]: 15.6 µM (active)

Cn1c(/C(C#N)=C(\O)c2ccc(Br)s2)nc2ccccc21
EC50 [17]: > 100 µM (inactive) | EC50 [18]: 45 µM (active) | EC50 [19]: 77 µM (active) | EC50 [20]: 60 µM (active)

O=C(COC(=O)c1cc(-c2ccco2)nc2ccccc12)NCc1ccccc1
IC50 [21]: > 56.8 µM (inactive) | IC50 [22]: 4.07 µM (active) | IC50 [23]: > 56.8 µM (inactive)

CC(C)c1cccc(C(C)C)c1NC(=O)c1ccc(-c2cc(Cl)ccc2Cl)o1
IC50 [24]: > 25 µM (inactive) | IC50 [25]: > 25 µM (inactive) | IC50 [26]: 12.7 µM (inactive) | IC50 [27]: > 25 µM (inactive)

O=C(NC1CCC2CN(Cc3ccccc3)CC21)c1cc(Cl)cc(Cl)c1 (stereo not given)
EC50 [1]: 4 µM (active)

CCOC(=O)c1c(-c2ccc(F)cc2)csc1NC(=O)CN1C(=O)NC2(CCCCC2C)C1=O (stereo not given)
EC50 [28]: > 59.6 µM (inactive) | EC50 [29]: > 59.6 µM (inactive) | AC50 [30]: 4.11 µM (active)

CC1CCN(C(=O)CSc2nc3cccnc3n2C)CC1
AC50 [10]: inconclusive

COc1ccc(-c2nn(-c3ccccc3)cc2/C=N/N2C(=O)CSC2=S)cc1
AC50 [31]: 4.38 µM (active) | AC50 [32]: 2.08 µM (active) | Absolute IC50 (CHOP) [13]: 10 µM

CC(C)CN(C(=O)c1ccc(N2CCCC2=O)cc1)c1c(N)n(Cc2ccccc2)c(=O)[nH]c1=O
AC50 [11]: > 60 µM (inactive)

Nc1c(C(=O)NCc2ccco2)c2nc3ccccc3nc2n1CCc1ccccc1
IC50 [33]: 1.87 µM (active)

O=C(NCCCN1CCN(c2ccccc2)CC1)C1CCCN(c2ncnc3c2nc2n3CCCCC2)C1 (stereo not given)
IC50 [14]: 7.51 µM (active) | IC50 [15]: > 20 µM (inactive) | IC50 [16]: 7.05 µM (active)
